Data: publication PMC8066331, “Anticancer Activity of Triazolo-Thiadiazole Derivatives and Inhibition of AKT1 and AKT2 Activation” (Pharmaceutics, 2021)

Experiments:
[1] = test system: CB17 SCID mice; test: In vivo acute toxicity; settings: single i.p. injection, 30 days observation, estimated graphically
Procedure: (§1) CB17 severe combined immunodeficient (SCID) male and female mice were used for toxicity and antitumor activity studies. Mice were obtained from National Center for Scientific Research (NCSR) Demokritos, Institute of Biology, Athens, Greece. CB17 SCID mice were fed water and an irradiated standard rodent diet ad libitum and housed under specific pathogen-free conditions. For ethical reasons, the weight and tumor volumes of the animals were measured twice a week during the experiment. In case of cachexia, suffering, or increase in the tumor volume up to 2000 mm^3, the animals were sacrificed by cervical disruption.
(§2) For intraperitoneal (i.p.) treatment, stock solutions of the 3 tested compounds were prepared immediately before use. They were suspended in corn oil in the desired concentrations following initial dissolution in 10% dimethyl sulfoxide (DMSO). […] Briefly, the acute toxicity of the tested compounds was assessed for lethality in CB17 SCID mice and determined as previously described. […] Each dosage comprised a group of ten mice, including males and females, that received single i.p. injections.

[2] = In vivo acute toxicity; settings: both sexes, mouse, in vivo, ip; CB17 SCID mice, single i.p. injection, 30 days observation, estimated graphically
Procedure: as §1, §2

[3] = test system: HT-29 human tumor (colorectal adenocarcinoma) xenograft; test: In vivo antitumor activity, HT-29 xenograft; settings: HT-29 xenograft in CB17 SCID mice; for volume size of the tumors: eighteen days after single i.p. dose at LD10; for tumor inhibition (TI): single i.p. dose at LD10
Procedure: as §1, with “disruption. The protocol was approved by the ethical committee of the National and Kapodistrian University of Athens and was conducted according to the European Directive 86/609/EEC guidelines for the care and use of laboratory animals. The study received a permit from the Veterinary Directorate of the Prefecture of Athens (approval #: 2023/2017) according to the Greek legislation conforming to the 2010/53/ EU Council Directive.” for “disruption.”
HT-29 (human colorectal adenocarcinoma) tumor volume was developed by subcutaneously implanting 2 × 10^6 HT-29 cells/mouse in the right hind flank. In vivo antitumor activity was investigated in 22 mice, of which 7 mice served as the common control group and the 15 remaining mice were divided into three groups of 5 mice. Therefore, each derivative was administered in a group of five mice. The animals were randomized into test groups on day 28 when their tumor volumes were in the 150–200 mm^3 range. After randomization, the mice were treated intraperitoneally (day 1) with the tested compounds (KA25, KA26, and KA39) as a single dose LD10. The control group received saline buffer (0.2 mL).
The tumor volumes were measured using an analogue caliper twice a week starting on the first day of treatment. To determine the volume (mm^3) of each tumor in an animal, the following formula was used: (D × d^2/2), where D and d refer to the larger and smaller perpendicular dimensions collected at each measurement, respectively. The diameters were determined from two orthogonal measurements on each tumor. The mean tumor volume was determined by average all tumor volumes in each group. The weekly mean tumor area change was determined and tumor inhibition (TI) was calculated by the formula: TI (%) = [1 − (TWT − TWZ)/[(TWC − TWZ)] × 100, where TWT is determined as the tumor area (mm^3) in treated animals at the time of evaluation, TWZ is determined as the tumor area (mm^3) at the time of initiation of treatment (zero time), and TWC is determined as the tumor volume (mm^3) in untreated animals (controls) at the time of evaluation. The animals were sacrificed when the tumor volume reached 2000 mm^3 (endpoint).

Row | Compound | LD10 [1] | LD50 at 30 days [2] | volume size of the tumors [3] | tumor inhibition (TI) [3]
1 | COc1cc(Cc2nnc3sc(-c4cc([N+](=O)[O-])ccc4[N+](=O)[O-])nn23)c(S(=O)(=O)N(C)C)cc1OC [KA39] | 70 mg/kg | 100 mg/kg | 489.17 ± 81.5 mm^3 | 67.6%
2 | COc1cc(Cc2nnc3sc(C=Cc4ccc(F)cc4)nn23)c(S(=O)(=O)N(C)C)cc1OC [KA25] | 200 mg/kg | 360 mg/kg | 521.6 ± 101.6 mm^3 | 62.1%
3 | COc1cc(Cc2nnc3sc(C=Cc4ccc(Cl)cc4)nn23)c(S(=O)(=O)N(C)C)cc1OC [KA26] | 100 mg/kg | 160 mg/kg | 528.5 ± 167.7 mm^3 | 62.4%
